Results: patent US20250302839A1 (D&D Biopharmaceuticals, Inc., priority 2024, published 2025)

Columns and labels:
human donor cornea [1] = assay: Pre- and post-treatment evaluation of corneal integrity (epithelium, stroma, endothelium; specular microscopy); settings: 10 mg/ml glutaric anhydride in 0.3M sodium phosphate buffer (pH 8.5), 60 seconds
Procedure: The agent used in this example was glutaric anhydride (GA). Paired human donor corneas were evaluated prior to treatment and immediately after treatment for intact epithelium, stroma, and endothelium. Riboflavin fluorescence for the GA treatment and the non-GA treatment control were compared. The test human cornea sample was labeled 21-095656 OD, and the control human cornea sample was labeled 21-095656 OS.
One pair human corneas were recovered by in situ removal by a certified eyebank technician and placed in LIFE4° C. and stored in Bausch & Lomb 20 ml viewing chambers, and stored at 2-8° C. Corneas were shipped on wet ice overnight to the treatment facility. Upon arrival, the corneas were warmed for 2±2 hours at 35° C. and evaluated for corneal integrity. […] At the time of the study, corneas were warmed for 2±2 hours at 35° C., and evaluated for corneal integrity.
The control and treated cornea samples were placed in a petri dish with the epithelial side up in a laminar flow hood with enough Life4° C. corneal preservation medium to fill the endothelial side of the human cornea with medium. […] Each sample was analyzed before treatment (FIGS. 1A-1C).
A single examiner performed all measurements. Corneal endothelium was evaluated utilizing a Konan Eyebank KeratoAnalyzer. […] Number of cells analyzed. • 8. […]

human donor cornea [2] = assay: Penetration of riboflavin into human donor cornea, evaluated by fluorescence microscopy; type: in vitro ADME

Structure (SMILES): O=C1CCCC(=O)O1 [glutaric anhydride]
- effect on corneal epithelium, stroma and endothelium post-treatment (human donor cornea [1]): did not adversely affect the corneal epithelium, stroma or endothelium
- disruption of corneal cell junctures permitting riboflavin diffusion (human donor cornea [2]; 10 mg/ml glutaric anhydride in 0.3M sodium phosphate buffer (pH 8.5), 1.0 ml for 60 seconds, continuous drops): disrupt cell junctures to permit diffusion of riboflavin through the epithelium and deep into the corneal stroma

Structure (SMILES): Cc1cc2nc3c(=O)[nH]c(=O)nc-3n(C[C@H](O)[C@H](O)[C@H](O)CO)c2cc1C [riboflavin, reference compound]
- time until riboflavin fluorescence was exhibited (human donor cornea [2]; test cornea 21-095656 OD, after 10 mg/ml buffered glutaric anhydride solution for 60 seconds, riboflavin 1.46 mg/ml in PBS, 2 x 0.5 mL, intact epithelium): ≤ 2 min
